Data taken from ChEMBL document CHEMBL1201862, “PubChem BioAssay data set” (2004).
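Results reflect a 48-hour exposure of cells in 96-well plates to compound at five concentrations. At the GI50, growth is halved.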 Calls of active or inactive are those of the source. Rule as the data show it: active = GI50 up to about 1.1 µM and inactive = higher.

Tests used:
Assay in all cases: NCI tumour cell line growth inhibition, 48 h
A498 = test system: A498
ACHN = test system: ACHN
CAKI-1 = test system: CAKI-1
HCC 2998 = test system: HCC 2998
HL-60 = test system: HL-60
HT-29 = test system: HT-29
KM12 = test system: KM12
LXFL 529 = test system: LXFL 529
NCI-H226 = test system: NCI-H226
OVCAR-5 = test system: OVCAR-5
OVCAR-8 = test system: OVCAR-8
SF-268 = test system: SF-268
SF-295 = test system: SF-295
SF-539 = test system: SF-539
TK-10 = test system: TK-10
UACC-257 = test system: UACC-257
BT-549 = test system: BT-549
MDA-MB-231 = test system: MDA-MB-231
NCI/ADR-RES = test system: NCI/ADR-RES
PC-3 = test system: PC-3

Row | Structure (SMILES) | GI50 (A498) | GI50 (ACHN) | GI50 (CAKI-1) | GI50 (HCC 2998) | GI50 (HL-60) | GI50 (HT-29) | GI50 (KM12) | GI50 (LXFL 529) | GI50 (NCI-H226) | GI50 (OVCAR-5) | GI50 (OVCAR-8) | GI50 (SF-268) | GI50 (SF-295) | GI50 (SF-539) | GI50 (TK-10) | GI50 (UACC-257) | GI50 (BT-549) | GI50 (MDA-MB-231) | GI50 (NCI/ADR-RES) | GI50 (PC-3)
1 | CC(=O)Nc1ccccc1Sc1ccccc1 | > 100 µM (inactive) | > 100 µM (inactive) | 69.8 µM (inactive) | > 100 µM (inactive) | > 100 µM (inactive) | > 100 µM (inactive) | > 100 µM (inactive) | > 100 µM (inactive) | > 100 µM (inactive) | > 100 µM (inactive) | > 100 µM (inactive) | 72.9 µM (inactive) | > 100 µM (inactive) | > 100 µM (inactive) | > 100 µM (inactive) | > 100 µM (inactive) | – | – | – | –
2 | [N-]=[N+]=Nc1ncnc2c1sc(=S)n2-c1ccccc1 | 78.9 µM (inactive) | > 100 µM (inactive) | > 100 µM (inactive) | > 100 µM (inactive) | 84.9 µM (inactive) | > 100 µM (inactive) | > 100 µM (inactive) | > 100 µM (inactive) | > 100 µM (inactive) | > 100 µM (inactive) | > 100 µM (inactive) | > 100 µM (inactive) | > 100 µM (inactive) | > 100 µM (inactive) | > 100 µM (inactive) | > 100 µM (inactive) | – | – | – | –
3 | COC1(C)CNCC(C)(C)NC(=O)C(C)(OC)CNCC(C)(C)NC1=O (stereo unspecified) | > 100 µM (inactive) | > 100 µM (inactive) | > 100 µM (inactive) | > 100 µM (inactive) | > 100 µM (inactive) | > 100 µM (inactive) | > 100 µM (inactive) | > 100 µM (inactive) | > 100 µM (inactive) | > 100 µM (inactive) | > 100 µM (inactive) | > 100 µM (inactive) | > 100 µM (inactive) | > 100 µM (inactive) | > 100 µM (inactive) | > 100 µM (inactive) | – | – | – | –
4 | Cc1ccc(NC(=O)CCc2n[nH]c(=S)o2)cc1 | > 100 µM (inactive) | > 100 µM (inactive) | > 100 µM (inactive) | > 100 µM (inactive) | > 100 µM (inactive) | > 100 µM (inactive) | > 100 µM (inactive) | > 100 µM (inactive) | > 100 µM (inactive) | > 100 µM (inactive) | > 100 µM (inactive) | > 100 µM (inactive) | > 100 µM (inactive) | > 100 µM (inactive) | > 100 µM (inactive) | > 100 µM (inactive) | – | – | – | –
5 | CCN(CC)c1ccc(/N=N/c2ccc(-c3nc4cccnc4s3)cc2)cc1 | > 100 µM (inactive) | > 100 µM (inactive) | > 100 µM (inactive) | > 100 µM (inactive) | > 100 µM (inactive) | > 100 µM (inactive) | > 100 µM (inactive) | > 100 µM (inactive) | > 100 µM (inactive) | > 100 µM (inactive) | > 100 µM (inactive) | 57.5 µM (inactive) | > 100 µM (inactive) | – | > 100 µM (inactive) | > 100 µM (inactive) | – | – | – | –
6 | N#CCCCCCOCCOCCOCCOCCOCCCCCC#N | > 100 µM (inactive) | > 100 µM (inactive) | > 100 µM (inactive) | > 100 µM (inactive) | > 100 µM (inactive) | > 100 µM (inactive) | > 100 µM (inactive) | > 100 µM (inactive) | > 100 µM (inactive) | > 100 µM (inactive) | > 100 µM (inactive) | > 100 µM (inactive) | > 100 µM (inactive) | – | > 100 µM (inactive) | 81.1 µM (inactive) | – | – | – | –
7 | Cn1c(=O)c(C(=O)NC(=O)NCCCCCOC(=O)CCCCCCCCCCC(=O)OCCCCCNC(=O)NC(=O)c2cn(Cc3ccccc3)c(=O)n(C)c2=O)cn(Cc2ccccc2)c1=O | > 100 µM (inactive) | > 100 µM (inactive) | > 100 µM (inactive) | > 100 µM (inactive) | > 100 µM (inactive) | > 100 µM (inactive) | > 100 µM (inactive) | > 100 µM (inactive) | > 100 µM (inactive) | > 100 µM (inactive) | > 100 µM (inactive) | > 100 µM (inactive) | – | > 100 µM (inactive) | > 100 µM (inactive) | > 100 µM (inactive) | – | – | – | –
8 | COC(CC1(OC)OC(=O)C=C1N)OC (stereo unspecified) | > 100 µM (inactive) | > 100 µM (inactive) | – | > 100 µM (inactive) | > 100 µM (inactive) | > 100 µM (inactive) | > 100 µM (inactive) | > 100 µM (inactive) | > 100 µM (inactive) | > 100 µM (inactive) | > 100 µM (inactive) | > 100 µM (inactive) | > 100 µM (inactive) | > 100 µM (inactive) | > 100 µM (inactive) | > 100 µM (inactive) | – | – | – | –
9 | CC(=O)CC(=O)CCC(=O)Nc1cccc(C(F)(F)F)c1 | > 100 µM (inactive) | > 100 µM (inactive) | > 100 µM (inactive) | > 100 µM (inactive) | > 100 µM (inactive) | > 100 µM (inactive) | > 100 µM (inactive) | > 100 µM (inactive) | > 100 µM (inactive) | > 100 µM (inactive) | > 100 µM (inactive) | > 100 µM (inactive) | > 100 µM (inactive) | > 100 µM (inactive) | > 100 µM (inactive) | > 100 µM (inactive) | – | – | – | –
10 | COC(=O)c1cccc2cccc(C(=O)Nc3ccc(C)cc3C)c12 | 33 µM (inactive) | 67.1 µM (inactive) | > 100 µM (inactive) | > 100 µM (inactive) | 1.08 µM (active) | 91 µM (inactive) | > 100 µM (inactive) | > 100 µM (inactive) | > 100 µM (inactive) | > 100 µM (inactive) | > 100 µM (inactive) | > 100 µM (inactive) | > 100 µM (inactive) | 96.4 µM (inactive) | > 100 µM (inactive) | > 100 µM (inactive) | – | – | – | –
11 | O=c1cc(-c2cccnc2)[nH]c2cc3c(cc12)OCO3 | 10.7 µM (inactive) | 13.6 µM (inactive) | – | 7.4 µM (inactive) | 7.35 µM (inactive) | 6.59 µM (inactive) | 3.77 µM (inactive) | 2.3 µM (inactive) | 18.8 µM (inactive) | > 100 µM (inactive) | 12.9 µM (inactive) | 12.9 µM (inactive) | 11.1 µM (inactive) | 5.58 µM (inactive) | 41.6 µM (inactive) | > 26.5 µM (inactive) | 30.3 µM (inactive) | 29.6 µM (inactive) | 14.8 µM (inactive) | 11 µM (inactive)
12 | CC(=O)c1ccc(NC(=O)C(=O)C(C(=O)/C=C/c2ccccc2)C2OC(=O)c3ccccc32)cc1 (stereo unspecified) | > 100 µM (inactive) | > 100 µM (inactive) | > 100 µM (inactive) | > 100 µM (inactive) | > 100 µM (inactive) | > 100 µM (inactive) | > 100 µM (inactive) | 96.6 µM (inactive) | > 100 µM (inactive) | > 100 µM (inactive) | > 100 µM (inactive) | > 100 µM (inactive) | > 100 µM (inactive) | > 100 µM (inactive) | > 100 µM (inactive) | > 100 µM (inactive) | – | – | – | –
